Assays:
B16F10 cells = assay: Proliferation assay, B16F10 (crystal violet); format: cell-based; details: Mus musculus, B16-F10, 96 h; B16F10, 4 days; read-out: Inhibition of B16F10 cell proliferation IC50
Description: Cultivated tumour cells (HeLa, human cervical tumour cells, ATCC CCL-2; NCI-H460, human non-small cell lung carcinoma cells, ATCC HTB-177; DU 145, hormone-independent human prostate carcinoma cells, ATCC HTB-81; HeLa-MaTu-ADR, multidrug-resistant human cervical carcinoma cells, EPO-GmbH Berlin; Caco-2, human colorectal carcinoma cells, ATCC HTB-37; B16F10, mouse melanoma cells, ATCC CRL-6475) were plated at a density of 5,000 cells/well (DU145, HeLa-MaTu-ADR), 3,000 cells/well (NCI-H460, HeLa), 1,500 cells/well (Caco-2), or 1,000 cells/well (B16F10) in a 96-well multititer plate in 200 μL of their respective growth medium supplemented 10% fetal calf serum. After 24 hours, the cells of one plate (zero-point plate) were stained with crystal violet (see below), while the medium of the other plates was supplemented with the test substances in various concentrations (0 μM, as well as in the range of 0.0001-10 μM; the final concentration of the solvent dimethyl sulfoxide was adjusted to 0.1%) using a Hewlett-Packard HP D300 Digital Dispenser. The cells were incubated for 4 days in the presence of test substances. Cell proliferation was determined by staining the cells with crystal violet: the cells were fixed by adding 20 μl/measuring point of an 11% glutaric aldehyde solution for 15 minutes at room temperature. After three washing cycles of the fixed cells with water, the plates were dried at room temperature. The cells were stained by adding 100 μl/measuring point of a 0.1% crystal violet solution (pH 3.0). After three washing cycles of the stained cells with water, the plates were dried at room temperature. The dye was dissolved by adding 100 μl/measuring point of a 10% acetic acid solution. The extinction was determined by photometry at a wavelength of 595 nm. The change of cell number, in percent, was calculated by normalization of the measured values to the extinction values of the zero-point plate (=0%) and the extinction of the untreated (0 Wm) cells (=100%). The IC50 values (inhibitory concentration at 50% of maximal effect) were determined by means of a 4 parameter fit.

CDK9/CycT1 = biological target: T1, CDK9/CycT1 (Homo sapiens, UniProt P50750); assay: CDK9/CycT1 high ATP kinase assay (TR-FRET); format: biochemical; details: 2 mM ATP; for IC50: Method 1b; for Selectivity high ATP CDK9 over high ATP CDK2: IC50 (high ATP CDK2)/IC50 (high ATP CDK9): minimal values where CDK9 IC50 is at the assay limit of about 1-2 nM
T1 construct: Recombinant full-length His-tagged human CDK9 and CycT1; His; purchased Life Technologies PV4131; host or cells: insect cells
T1 sequence (P50750 whole entry): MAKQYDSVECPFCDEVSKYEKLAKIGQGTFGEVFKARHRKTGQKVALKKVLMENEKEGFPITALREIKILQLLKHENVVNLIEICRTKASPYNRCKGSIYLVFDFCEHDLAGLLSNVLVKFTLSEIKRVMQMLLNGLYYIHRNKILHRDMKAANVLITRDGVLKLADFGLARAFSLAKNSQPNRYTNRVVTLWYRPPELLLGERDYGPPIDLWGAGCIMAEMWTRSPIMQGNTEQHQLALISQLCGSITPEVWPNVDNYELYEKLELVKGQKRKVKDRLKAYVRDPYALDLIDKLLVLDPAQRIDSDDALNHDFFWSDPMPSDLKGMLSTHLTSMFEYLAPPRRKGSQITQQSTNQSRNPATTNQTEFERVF
T1 sequence (O60563 whole entry partner): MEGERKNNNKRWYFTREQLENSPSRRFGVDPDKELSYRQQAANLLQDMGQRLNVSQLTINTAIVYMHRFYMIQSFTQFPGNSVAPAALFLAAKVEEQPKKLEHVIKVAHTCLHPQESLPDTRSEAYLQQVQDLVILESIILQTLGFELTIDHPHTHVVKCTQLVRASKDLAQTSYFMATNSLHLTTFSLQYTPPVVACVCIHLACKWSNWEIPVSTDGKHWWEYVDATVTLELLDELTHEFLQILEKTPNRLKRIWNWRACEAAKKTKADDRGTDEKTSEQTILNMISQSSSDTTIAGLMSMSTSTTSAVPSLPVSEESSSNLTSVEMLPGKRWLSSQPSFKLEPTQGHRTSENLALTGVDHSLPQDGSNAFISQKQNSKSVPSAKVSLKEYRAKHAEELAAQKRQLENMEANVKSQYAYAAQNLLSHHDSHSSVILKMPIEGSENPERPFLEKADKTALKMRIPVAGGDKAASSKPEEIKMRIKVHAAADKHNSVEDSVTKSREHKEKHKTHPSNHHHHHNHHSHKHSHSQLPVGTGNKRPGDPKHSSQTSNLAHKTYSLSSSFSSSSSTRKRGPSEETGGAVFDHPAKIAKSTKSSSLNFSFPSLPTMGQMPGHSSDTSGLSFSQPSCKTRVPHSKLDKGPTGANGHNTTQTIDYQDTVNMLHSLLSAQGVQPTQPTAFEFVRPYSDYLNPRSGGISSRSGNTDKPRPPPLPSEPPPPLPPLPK
Description: 1b. CDK9/CycT1 High ATP Kinase Assay
CDK9/CycT1-inhibitory activity of compounds of the present invention at a high ATP concentration after preincubation of enzyme and test compounds was quantified employing the CDK9/CycT1 TR-FRET assay as described in the following paragraphs.
Recombinant full-length His-tagged human CDK9 and CycT1, expressed in insect cells and purified by Ni-NTA affinity chromatography, were purchased from Life Technologies (Cat. No PV4131). As substrate for the kinase reaction biotinylated peptide biotin-Ttds-YISPLKSPYKISEG (C-terminus in amide form) was used which can be purchased e.g. form the company JERINI peptide technologies (Berlin, Germany).
For the assay 50 nl of a 100 fold concentrated solution of the test compound in DMSO was pipetted into either a black low volume 384 well microtiter plate or a black 1536 well microtiter plate (both Greiner Bio-One, Frickenhausen, Germany), 2 μl of a solution of CDK9/CycT1 in aqueous assay buffer [50 mM Tris/HCl pH 8.0, 10 mM MgCl2, 1.0 mM dithiothreitol, 0.1 mM sodium ortho-vanadate, 0.01% (v/v) Nonidet-P40 (Sigma)] were added and the mixture was incubated for 15 min at 22° C. to allow pre-binding of the test compounds to the enzyme before the start of the kinase reaction. […] The concentration of CDK9/CycT1 was adjusted depending of the activity of the enzyme lot and was chosen appropriate to have the assay in the linear range, typical concentrations were in the range of 0.5 μg/ml. The reaction was stopped by the addition of 3 μl of a solution of TR-FRET detection reagents (0.33 μM streptavidine-XL665 [Cisbio Bioassays, Codolet, France] and 1.67 nM anti-RB(pSer807/pSer811)-antibody from BD Pharmingen [#558389] and 2 nM LANCE EU-W1024 labeled anti-mouse IgG antibody [Perkin-Elmer, product no. AD0077]) in an aqueous EDTA-solution (167 mM EDTA, 0.2% (w/v) bovine serum albumin in 100 mM HEPES pH 7.5).
The resulting mixture was incubated 1 h at 22° C. to allow the formation of complex between the phosphorylated biotinylated peptide and the detection reagents. Subsequently the amount of phosphorylated substrate was evaluated by measurement of the resonance energy transfer from the Eu-chelate to the streptavidine-XL. Therefore, the fluorescence emissions at 620 nm and 665 nm after excitation at 350 nm was measured in a TR-FRET reader, e.g. a Pherastar (BMG Labtechnologies, Offenburg, Germany) or a Viewlux (Perkin-Elmer). The ratio of the emissions at 665 nm and at […] was taken as the measure for the amount of phosphorylated substrate. The data were normalised (enzyme reaction without inhibitor=0% inhibition, all other assay components but no enzyme=100% inhibition).

Row | IC50 (B16F10 cells) | IC50 (CDK9/CycT1) | Selectivity high ATP CDK9 over high ATP CDK2: IC50 (high ATP CDK2)/IC50 (high ATP CDK9) (CDK9/CycT1) | SMILES
1 | 99 nM | 3.4 nM | 249 | CC(C)(C)OC(=O)N=S(C)(=O)Cc1cc2cc(c1)OCCCCNc1cc(ccc1F)-c1nc(ncc1F)N2 (racemic) [Example 1, (rac)-tert-butyl [{[3,20-difluoro-13-oxa-5,7,18,25-tetraazatetracyclo[17.3.1.1^2,6.1^8,12]pentacosa-1(23),2(25),3,5,8(24),9,11,19,21-nonaen-10-yl]methyl}(methyl)oxido-λ^6-sulfanylidene]carbamate]
2 | 1.2 nM | 1.8 nM | 87 | CS(=N)(=O)Cc1cc2cc(c1)OCCCCNc1cc(ccc1F)-c1nc(ncc1F)N2 (racemic) [Example 2, (rac)-3,20-difluoro-10-[(S-methylsulfonimidoyl)methyl]-13-oxa-5,7,18,25-tetraazatetracyclo[17.3.1.1^2,6.1^8,12]pentacosa-1(23),2(25),3,5,8(24),9,11,19,21-nonaene]
3 | 25 nM | 1.8 nM | 460 | CS(=N)(=O)Cc1cc2cc(c1)OCCCNc1cc(ccc1F)-c1nc(ncc1F)N2 (racemic) [Example 3, (rac)-3,19-difluoro-10-[(S-methylsulfonimidoyl)methyl]-13-oxa-5,7,17,24-tetraazatetracyclo[16.3.1.1^2,6.1^8,12]tetracosa-1(22),2(24),3,5,8(23),9,11,18,20-nonaene]
4 |  | 0.8 nM | 606 | CC1CCCNc2cc(ccc2F)-c2nc(ncc2F)Nc2cc(CS(C)(=O)=O)cc(c2)O1 (racemic) [Example 8, (rac)-3,20-difluoro-14-methyl-10-[(methylsulfonyl)methyl]-13-oxa-5,7,18,25-tetraazatetracyclo[17.3.1.1^2,6.1^8,12]pentacosa-1(23),2(25),3,5,8(24),9,11,19,21-nonaene]

— patent publication US11691986B2, “PTEFB inhibiting macrocyclic compounds” (Bayer Aktiengesellschaft, priority 2017, dated 2023)
